Experimental data published in patent US20210085630A1, “PHARMACEUTICAL COMPOSITION AND USE THEREOF IN PREPARING DRUG FOR TREATING TUMOR MULTI-DRUG RESISTANCE” (SICHUAN JIUZHANG BIOLOGICAL SCIENCE AND TECHNOLOGY CO., LTD., priority 2018, published 2021).

Legend:
[1] = test system: drug-resistant A549 lung cancer cell lines; test: Reversal of gemcitabine resistance in drug-resistant A549 cells (MTT); assay type: cell-based, human; details: test drug 30 μg/ml; for Reversal index: IC50 before reversal/IC50 after reversal, drug-resistant A549
Procedure: The culture and experimental methods of cells were the same as above. In the experiment, there are following groups: drug-resistant cell negative group, drug-resistant cells+test drug group 1 (30 μg/ml), drug-resistant cells+test drug group 2 (30 μg/ml), drug-resistant cells+test drug group 3 (30 μg/ml), drug-resistant cells+test drug group 4 (30 μg/ml), drug-resistant cells+test drug group 5 (30 μg/ml), drug-resistant cells+test drug group 6 (30 μg/ml). Each test drug group was respectively added with different concentrations of gemcitabine, each concentration including 3 replicate wells, and the OD value of each well was measured, to observe whether the cytotoxicity was shown. Each test drug and gemcitabine were respectively used to act on drug resistant cells, so as to compare with the effects of gemcitabine administrated alone on drug-resistant cells, and the IC50 value of gemcitabine against drug-resistant cell lines was calculated, as well as the IC50 value of each test drug after reversing drug-resistant cell lines. Reversal index=IC50 value before reversal/IC50 value after reversal.

[2] = test system: Opdivo-resistant B16 melanoma; test: Antitumor effect (tumor volume, weight, inhibition rate) in Opdivo-resistant B16 melanoma mice; assay type: in vivo; details: for Tumor volume (cm^3): 30 mg/kg i.p. once a day, + Opdivo groups: test drug 5 days, then Opdivo 30 mg/kg every other day; for Tumor inhition rate (%) / Tumor weight: 30 mg/kg i.p., + Opdivo groups 30 + 30 mg/kg
Procedure: The concentration of cell lines was adjusted to 1×10^7/ml with the culture medium. 1×10^7/ml of cells were subcutaneously injected into the right armpit of mice, 0.1 ml per mouse.
The model mice were randomly divided into groups, eight for one group, and included test drug group 1, test drug group 2, test drug group 3, test drug group 4, positive drug Opdivo group, single drug chlorogenic acid group, test drug 1+Opdivo group, test drug 2+Opdivo group, test drug 3+Opdivo group, test drug 4+Opdivo group, and negative group, respectively.
Test drug group: from the second day after stopping administration to the model, the group received drug by intraperitoneal injection, once a day, 30 mg/kg.
Single drug group: from the second day after stopping administration to the model, the group received drug by intraperitoneal injection, once a day, 30 mg/kg.
Test drug+Opdivo group: from the second day after stopping administration to the model, the group received the test drug by intraperitoneal injection, once a day, and the test drug was stopped after administrating for 5 consecutive days; on the next day, Opdivo was intraperitoneally injected, once every other day, with the dosage of 30 mg/kg.
Positive drug group: once every other day, 30 mg/kg.
Negative group: normal saline was intraperitoneally injected, once a day, the same amount of saline.
Before each administration, the tumor volume was measured, and the experiment was stopped when the average tumor volume of negative group was greater than 1.5 cm^3.
(§1) After completion of administration, the experiment was stopped, and the mice were killed by cervical dislocation and weighed. The tumor was stripped and weighed, to calculate the tumor inhibition rate.

[3] = test system: gemcitabine-resistant Lewis lung cancer; test: Tumor weight and inhibition rate, transplanted gemcitabine-resistant Lewis lung cancer; assay type: in vivo; details: gemcitabine-resistant Lewis lung cancer mice; test drug 30 mg/kg i.p. once a day 5 days, then gemcitabine 300 mg/kg every other day; positive drug gemcitabine 300 mg/kg
Procedure: Lewis lung cancer cell lines were induced by the increased gradient concentration of gemcitabine, and established by clone screening and cultured without drug before the experiment.
(§2) After the drug was removed from the drug-resistant cell lines, the cell concentration was adjusted to 1×10^7/ml with the culture medium. 1×10^7/ml of cells were subcutaneously injected into the right armpit of mice, 0.1 ml per mouse.
(§3) After the average diameter of tumor reached […], the mice were randomly divided into test drug group 1, test drug group 2, test drug group 3, test drug group 4, test drug group 5, test drug group 6, positive drug group, and negative group, respectively.
(§4) Test drug group: the test drug group was first intraperitoneally injected, once a day, 30 mg/kg/time, for 5 consecutive days; administration was stopped, and the positive drug was given by intraperitoneal injection on the next day; wherein the positive drug dacarbazine was administrated once every other day, 60 mg/kg/time; wherein the positive drug gemcitabine was given once every other day, 300 mg/kg/time.
(§5) Positive drug group: positive drug dacarbazine was given once every other day, 60 mg/kg/time; positive drug gemcitabine was given once every other day, 300 mg/kg/time.
(§6) Negative group: normal saline was intraperitoneally injected, once a day, for 15 consecutive days.
as §1

PD-1/PD-L1 [4] = test: PD-1/PD-L1 expression rate (immunohistochemical SP method), drug-resistant Lewis lung cancer tumor tissue; assay type: in vivo; details: transplanted tumor tissues of drug-resistant Lewis lung cancer in mice, Example 3 regimen
Description: (§7) The positive expression rate of PD-1/PD-L1 in tumor tissues was detected by immunohistochemical SP method.

PD-1/PD-L1 [5] = test: PD-1/PD-L1 expression rate in tumor tissues of Opdivo-resistant B16 melanoma mice; assay type: in vivo; details: tumor tissues of drug-resistant (Opdivo) B16 melanoma mice
Description: as §7

[6] = test system: dacarbazine-resistant B16 melanoma; test: Tumor weight and inhibition rate, transplanted dacarbazine-resistant B16 melanoma; assay type: in vivo; details: dacarbazine-resistant B16 melanoma mice; test drug 30 mg/kg i.p. once a day 5 days, then dacarbazine 60 mg/kg every other day; positive drug dacarbazine 60 mg/kg
Procedure: B16 melanoma cell lines were induced by the increased gradient concentration of dacarbazine, and established by clone screening and cultured without drug before the experiment.
as §2, §3, §4, §5, §6, §1

Row | Compound | Reversal index [1] | reversal effect on the drug-resistant A549 cell lines (in words) [1] | continuous treatment effect / effect on tumor volume control (in words) [2] | Tumor volume (cm^3) [2] [cm^3] | Tumor inhition rate (%) [2] [%] | Tumor weight [2] [g] | Tumor inhibitory rate (%) [3] [%] | Tumor weight (g) [3] | Expression rate of PD-1/PD-L1, Positive PD-L1 (PD-1/PD-L1 [4]) [%] | Expression rate of PD-1/PD-L1, Positive PD-L1 (PD-1/PD-L1 [5]) [%] | Tumor inhibition rate (%) [6] [%] | Tumor weight (g) [6] | Tumor weight [6] [g]
1 | O=C(/C=C/c1ccc(O)c(O)c1)O[C@@H]1C[C@](O)(C(=O)O)C[C@@H](O)[C@H]1O [Chlorogenic acid, chlorogenic acid] | 1.13 | no significant reversal effect | not obvious | 1.788 ± 0.539 | 3.18 | 2.74 ± 0.59 | 10.48 | 2.05 ± 0.79 ^ g | 81.83 | 83.41 | 19.32 | 2.13 ± 0.52*Δ g | –
2 | O=C(/C=C/c1ccc(O)cc1)O[C@@H]1C[C@](O)(C(=O)O)C[C@@H](O)[C@H]1O [Coumaroylquinic acid, coumaroylquinic acid] | 1.10 | no significant reversal effect | – | 1.762 ± 0.947 | 4.24 | 2.71 ± 0.46 | 5.68 | 2.16 ± 0.41 ^ g | 79.23 | 82.87 | 15.91 | – | 2.22 ± 0.26
